Our source for the DC50 and Kd values is patent US20250115598A1 (Anaxis Pharma Pty Ltd, priority 2021, published 2025).

A word on the DC50: it is the concentration giving 50% degradation. As a reminder, the Kd is the constant that tells how readily two partners part at equilibrium.

Structures are written as SMILES. A value given as a limit tells only on which side of the number the result lay.

For one test, the target named is endogenous MLKL in MDF (Mus musculus (Mouse), UniProt Q9D2Y4). The experiment in a line: Degradation assay: endogenous MLKL in MDF (western blot). Conditions: MDF cells, 24 h incubation with compound, MLKL adjusted for loading with GAPDH, normalized to DMSO only control, read-out: Degradation of endogenous MLKL in MDF (DC50 cell-based assay). On the procedure: Degradation Assay: Screening Compounds Procedure to Evaluate the Activity of Compounds in Degrading Endogenous MLKL in Human and Mouse Cell
The mouse dermal fibroblast (MDF) cell line was seeded the day before the experiment in a 24-well plate at a cell density of […] per well in a volume of 0.5 mL per well and left to attach overnight. The human monocyte cell line (U937) was seeded on the day of the experiment in a 24-well plate at a cell density of […] per well in a volume of 0.5 mL per well.
The compound was diluted in DMSO with a starting concentration of 10 mM and titrated stepwise with a dilution of 1:5. 0.5 μL of the compound dilution was added to the appropriate well to achieve a final concentration of 10; 2; 0.4; 0.08 and 0.016 μM. A DMSO only well was included as control.
The cells were incubated for 24 h in the presence of the compound at 37° C. and 10% CO2.
After the 24 h incubation period, the medium was removed and cells washed with 0.5 mL PBS. The cells were then lysed directly in 60 μL of 1×SDS gel loading buffer.
The cell lysate was heat-denatured at […] for 10 min. 10 μL of lysate per well were run on 18-well 4-15% Criterion TGX stain free gels (BIO-RAD). The proteins were then transferred onto nitrocellulose membrane with a wet transfer protocol in the Criterion Blotter (BIO-RAD).
Membranes were blocked with 5% skim milk in TBST. Primary antibody against MLKL (clone 3H1, MABC604 Merck) was used at 1:2000 dilution in TBST with 1% BSA and left shaking over night at 4° C. After washes with TBST, the membranes were incubated with goat anti-rat IgG HRP-conjugated antibody (Southern Biotech) in 1% skim milk TBST at 1:10000 dilution for 1 h at room temperature. After TBST washes the bands were imaged on the ChemiDoc MP Imaging System (BIO-RAD) with Immobilion Western Chemiluminescent HRP Substrate Forte (Millipore). The loading control GAPDH was probed for with rabbit anti-GAPDH (CST 14C10) at 1:2000 dilution in 1% BSA TBST over night at 4° C. TBST washes were followed by incubation with goat anti-rabbit IgG HRP-conjugated antibody (Southern Biotech) in 1% skim milk TBST at 1:10000 dilution for 1 h at room temperature followed by TBST washes. The signal was detected as described above.
The band intensity was measured in the ImageLab Software (BIO-RAD) and the MLKL values adjusted for loading with GAPDH. The percentage of degradation was calculated by normalizing the compound treated values to the DMSO only control.
(Immunoblotting shows a protein as a band on a membrane.)

A further test addresses human MLKL (full length) (Homo sapiens (Human), UniProt Q8NB16). The experiment in a line: KINOMEscan binding assay, human MLKL (full length). Conditions: hMLKL, Table 25; read-out: MLKL (KD). The gist of the method: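 Active-site competition binding: DNA-tagged kinase (T7 phage fusion from BL21-derived E. coli lysate, or HEK-293-expressed) captured on immobilized-ligand beads, with bound kinase in the eluate quantified by qPCR. Compounds ran as 11-point 3-fold dilutions, 1% DMSO, top 30,000 nM for most. Kd came from a Hill fit (slope −1).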

Sequence of endogenous MLKL in MDF (Q9D2Y4 whole entry): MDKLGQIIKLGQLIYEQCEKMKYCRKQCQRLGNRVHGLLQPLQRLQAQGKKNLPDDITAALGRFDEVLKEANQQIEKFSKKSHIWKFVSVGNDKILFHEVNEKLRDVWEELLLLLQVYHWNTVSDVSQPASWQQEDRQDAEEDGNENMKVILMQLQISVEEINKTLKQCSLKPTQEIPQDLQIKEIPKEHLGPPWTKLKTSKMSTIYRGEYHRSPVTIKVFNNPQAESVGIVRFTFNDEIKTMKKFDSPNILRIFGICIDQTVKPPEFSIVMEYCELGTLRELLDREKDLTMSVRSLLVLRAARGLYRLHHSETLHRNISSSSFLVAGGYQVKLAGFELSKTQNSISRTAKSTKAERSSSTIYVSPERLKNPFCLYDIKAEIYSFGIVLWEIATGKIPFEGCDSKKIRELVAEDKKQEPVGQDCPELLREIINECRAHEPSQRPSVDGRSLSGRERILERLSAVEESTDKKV
Sequence of human MLKL (full length) (Q8NB16 whole entry, the tested form may be a part): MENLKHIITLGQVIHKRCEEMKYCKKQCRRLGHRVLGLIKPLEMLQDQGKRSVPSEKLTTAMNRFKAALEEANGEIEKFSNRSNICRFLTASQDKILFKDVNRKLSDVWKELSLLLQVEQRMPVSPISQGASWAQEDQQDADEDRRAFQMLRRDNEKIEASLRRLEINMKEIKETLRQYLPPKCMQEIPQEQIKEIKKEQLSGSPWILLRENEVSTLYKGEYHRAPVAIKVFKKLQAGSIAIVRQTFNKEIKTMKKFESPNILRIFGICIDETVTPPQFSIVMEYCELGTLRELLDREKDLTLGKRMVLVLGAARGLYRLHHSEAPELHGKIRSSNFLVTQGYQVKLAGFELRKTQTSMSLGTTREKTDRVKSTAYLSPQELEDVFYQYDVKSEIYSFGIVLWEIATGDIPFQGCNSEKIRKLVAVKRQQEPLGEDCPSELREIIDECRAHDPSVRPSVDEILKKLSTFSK

Take `Cc1ncsc1-c1ccc(CNC(=O)[C@@H]2C[C@@H](O)CN2C(=O)[C@@H](NC(=O)C2(F)CC2)C(C)(C)C)c(OCCCCCCCCn2cc(-c3cnc(N)c4c(-c5ccc(NS(=O)(=O)C(F)F)c(O[C@@H](C)c6ccc(F)cc6)c5)nn(C)c34)cn2)c1` [Compound 1045, (2S,4R)-N-[(2-{[8-(4-{4-amino-3-[4-(difluoromethanesulfonamido)-3-[(1S)-1-(4-fluorophenyl)ethoxy]phenyl]-1-methyl-1H-pyrazolo[4,3-c]pyridin-7-yl}-1H-pyrazol-1-yl)octyl]oxy}-4-(4-methyl-1,3-thiazol-5-yl)phenyl)methyl]-1-[(2S)-2-[(1-fluorocyclopropyl)formamido]-3,3-dimethylbutanoyl]-4-hydroxypyrrolidine-2-carboxamide]: the 50% degradation concentration (DC50) on endogenous MLKL in MDF is under 1000 nM. Also, the dissociation constant (Kd) at human MLKL (full length) fell in the range of 10 to 1000 nM.

As for `Cc1ncsc1-c1ccc(CNC(=O)[C@@H]2C[C@@H](O)CN2C(=O)[C@@H](NC(=O)CCCCCCCCC#Cc2cnc(N)c3c(-c4ccc(NS(=O)(=O)C(F)F)c(O[C@@H](C)c5ccc(F)cc5)c4)nn(C)c23)C(C)(C)C)cc1` [Compound 1028, (2S,4R)-1-[(2S)-2-(11-{4-amino-3-[4-(difluoromethanesulfonamido)-3-[(1S)-1-(4-fluorophenyl)ethoxy]phenyl]-1-methyl-1H-pyrazolo[4,3-c]pyridin-7-yl}undec-10-ynamido)-3,3-dimethylbutanoyl]-4-hydroxy-N-{[4-(4-methyl-1,3-thiazol-5-yl)phenyl]methyl}pyrrolidine-2-carboxamide], the half-maximal degradation concentration (DC50) on endogenous MLKL in MDF was in the range of 1000 to 10000 nM.

Regarding `Cc1ncsc1-c1ccc(CNC(=O)[C@@H]2C[C@@H](O)CN2C(=O)[C@@H](NC(=O)CCCCCCC#Cc2cnc(N)c3c(-c4ccc(NS(=O)(=O)C(F)F)c(O[C@@H](C)c5ccc(F)cc5)c4)nn(C)c23)C(C)(C)C)cc1` [Compound 1027, (2S,4R)-1-[(2S)-2-(9-{4-amino-3-[4-(difluoromethanesulfonamido)-3-[(1S)-1-(4-fluorophenyl)ethoxy]phenyl]-1-methyl-1H-pyrazolo[4,3-c]pyridin-7-yl}non-8-ynamido)-3,3-dimethylbutanoyl]-4-hydroxy-N-{[4-(4-methyl-1,3-thiazol-5-yl)phenyl]methyl}pyrrolidine-2-carboxamide], the half-maximal degradation concentration (DC50) at endogenous MLKL in MDF was 1000 to 10000 nM.

In the case of `C[C@H](Oc1cc(-c2nn(C)c3c(-c4cnn(CCCCCCCOc5cccc6c5C(=O)N(C5CCC(=O)N(C)C5=O)C6=O)c4)cnc(N)c23)ccc1NS(=O)(=O)C(F)F)c1ccc(F)cc1` (stereo partly drawn) [Compound 1100, N-(4-{4-amino-1-methyl-7-[1-(7-{[2-(1-methyl-2,6-dioxopiperidin-3-yl)-1,3-dioxo-2,3-dihydro-1H-isoindol-4-yl]oxy}heptyl)-1H-pyrazol-4-yl]-1H-pyrazolo[4,3-c]pyridin-3-yl}-2-[(1S)-1-(4-fluorophenyl)ethoxy]phenyl)-1,1-difluoromethanesulfonamide], the half-maximal degradation concentration (DC50) on endogenous MLKL in MDF is under 1000 nM.

For `Cn1nc(-c2ccc(NS(=O)(=O)C(F)F)c(F)c2)c2c(N)ncc(-c3cnn(CCCCCCCOc4cccc5c4C(=O)N(C4CCC(=O)NC4=O)C5=O)c3)c21` (centres unmarked) [Compound 1060, N-(4-{4-amino-7-[1-(7-{[2-(2,6-dioxopiperidin-3-yl)-1,3-dioxo-2,3-dihydro-1H-isoindol-4-yl]oxy}heptyl)-1H-pyrazol-4-yl]-1-methyl-1H-pyrazolo[4,3-c]pyridin-3-yl}-2-fluorophenyl)-1,1-difluoromethanesulfonamide], the DC50 at endogenous MLKL in MDF was in the range of 1000 to 10000 nM. Also, at human MLKL (full length), the dissociation constant Kd is under 10 nM.

In the case of `C[C@H](Oc1cc(-c2nn(C)c3c(-c4cnn(C5CCN(C(=O)[C@]67C[C@](Nc8cccc9c8C(=O)N(C8CCC(=O)NC8=O)C9=O)(C6)C7)CC5)c4)cnc(N)c23)ccc1NS(=O)(=O)C(F)F)c1ccc(F)cc1` (stereo partly drawn) [Compound 1118, N-[4-(4-amino-7-{1-[1-(3-{[2-(2,6-dioxopiperidin-3-yl)-1,3-dioxo-2,3-dihydro-1H-isoindol-4-yl]amino}bicyclo[1.1.1]pentane-1-carbonyl)piperidin-4-yl]-1H-pyrazol-4-yl}-1-methyl-1H-pyrazolo[4,3-c]pyridin-3-yl)-2-[(1S)-1-(4-fluorophenyl)ethoxy]phenyl]-1,1-difluoromethanesulfonamide], the DC50 on endogenous MLKL in MDF is under 1000 nM.

Consider `C[C@H](Oc1cc(-c2nn(C)c3c(-c4cnn(C5CCN(CCc6cn(CCNc7cccc8c7C(=O)N(C7CCC(=O)NC7=O)C8=O)nn6)CC5)c4)cnc(N)c23)ccc1NS(=O)(=O)C(F)F)c1ccc(F)cc1` (some centres unmarked) [Compound 1135, N-(4-{4-amino-7-[1-(1-{2-[1-(2-{[2-(2,6-dioxopiperidin-3-yl)-1,3-dioxo-2,3-dihydro-1H-isoindol-4-yl]amino}ethyl)-1H-1,2,3-triazol-4-yl]ethyl}piperidin-4-yl)-1H-pyrazol-4-yl]-1-methyl-1H-pyrazolo[4,3-c]pyridin-3-yl}-2-[(1 S)-1-(4-fluorophenyl)ethoxy]phenyl)-1,1-difluoromethanesulfonamide], for which, on endogenous MLKL in MDF, the DC50 lay within 1000 to 10000 nM.

With `Cc1ncsc1-c1ccc(CNC(=O)[C@@H]2C[C@@H](O)CN2C(=O)[C@@H](NC(=O)c2cccc(OCCn3cc(-c4cnc(N)c5c(-c6ccc(NS(=O)(=O)C(F)F)c(O[C@@H](C)c7ccc(F)cc7)c6)nn(C)c45)cn3)c2)C(C)(C)C)cc1` [Compound 1039, (2S,4R)-1-[(2S)-2-({3-[2-(4-{4-amino-3-[4-(difluoromethanesulfonamido)-3-[(1S)-1-(4-fluorophenyl)ethoxy]phenyl]-1-methyl-1H-pyrazolo[4,3-c]pyridin-7-yl}-1H-pyrazol-1-yl)ethoxy]phenyl}formamido)-3,3-dimethylbutanoyl]-4-hydroxy-N-{[4-(4-methyl-1,3-thiazol-5-yl)phenyl]methyl}pyrrolidine-2-carboxamide], the half-maximal degradation concentration (DC50) at endogenous MLKL in MDF is 1000 to 10000 nM. Also, the Kd at human MLKL (full length) is 10 to 1000 nM.
